Where two headings read alike, the source gives them in different places.
What was measured:
human P2X2/3 receptor = human P2X2/3 receptor (Homo sapiens (Human), UniProt P56373+Q9UBL9); assay: Intracellular calcium measurement (FLIPR, Fluo-4) of antagonist activity at human P2X2/3 receptors; assay type: cell-based
In short: (§1)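 Cells expressing human P2X3 or P2X2/3, loaded with Fluo-4, preincubated 30 min at 37° C. with compound (1% DMSO final), then challenged with α,β-Me-ATP at its EC80. Peak FLIPR fluorescence over 90 sec gave % response; IC50, maximal inhibition and Hill slope from triplicates.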

human P2X3 receptor = human P2X3 receptor (Homo sapiens (Human), UniProt P56373); assay: Intracellular calcium measurement (FLIPR, Fluo-4) of antagonist activity at human P2X3 receptors; assay type: cell-based; settings: read-out: hP2X3 IC50
In short: as §1

[1] = human P2X2/3, FLIPR calcium assay, agonist α,β-Me-ATP, read-out: hP2X2/3 IC50
[2] = human P2X3, FLIPR calcium assay, agonist α,β-Me-ATP

human P2X2/3 receptor, sequence (P56373 whole entry): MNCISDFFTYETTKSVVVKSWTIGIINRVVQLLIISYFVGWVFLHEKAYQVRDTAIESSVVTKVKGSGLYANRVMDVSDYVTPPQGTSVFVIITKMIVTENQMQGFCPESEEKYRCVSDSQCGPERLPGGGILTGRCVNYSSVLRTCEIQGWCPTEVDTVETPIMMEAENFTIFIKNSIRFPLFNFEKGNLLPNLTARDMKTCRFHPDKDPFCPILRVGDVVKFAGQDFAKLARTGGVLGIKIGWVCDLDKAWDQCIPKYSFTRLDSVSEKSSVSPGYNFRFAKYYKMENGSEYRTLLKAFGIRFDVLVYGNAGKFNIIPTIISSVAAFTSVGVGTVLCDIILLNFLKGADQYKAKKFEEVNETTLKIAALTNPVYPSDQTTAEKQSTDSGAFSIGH
human P2X2/3 receptor, sequence (Q9UBL9 whole entry): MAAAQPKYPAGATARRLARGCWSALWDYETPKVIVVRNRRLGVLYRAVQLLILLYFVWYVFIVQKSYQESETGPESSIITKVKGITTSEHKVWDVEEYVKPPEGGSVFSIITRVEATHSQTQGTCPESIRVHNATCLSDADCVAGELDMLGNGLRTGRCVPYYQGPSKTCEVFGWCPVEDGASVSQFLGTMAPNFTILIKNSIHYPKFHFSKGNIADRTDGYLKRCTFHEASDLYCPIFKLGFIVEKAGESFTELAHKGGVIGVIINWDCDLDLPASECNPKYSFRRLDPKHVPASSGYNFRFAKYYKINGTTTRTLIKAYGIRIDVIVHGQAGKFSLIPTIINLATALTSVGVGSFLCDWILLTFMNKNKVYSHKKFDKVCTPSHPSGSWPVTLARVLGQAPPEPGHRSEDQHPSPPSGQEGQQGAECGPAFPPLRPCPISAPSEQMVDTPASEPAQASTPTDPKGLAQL
human P2X3 receptor, sequence (P56373 whole entry): as the sequence (P56373 whole entry) above

| SMILES | IC50 (human P2X2/3 receptor; [1]) [nM] | IC50 (human P2X3 receptor; [2]) [nM] | IC50 (human P2X2/3 receptor; hP2X2/3 IC50 (nM)) [nM] | IC50 (human P2X3 receptor) [nM] |
| --- | --- | --- | --- | --- |
| C[C@@H](NC(=O)c1cc(OC[C@H]2CCOC2)cc(-c2ncc(C3CCC3)s2)c1)c1cnc(C(F)(F)F)nc1 [Example 123, 3-(5-Cyclobutyl-1,3-thiazol-2-yl)-5-[(3S)-tetrahydrofuran-3-ylmethoxy]-N-{(1R)-1-[2-(trifluoromethyl)pyrimidin-5-yl]ethyl}benzamide] | 164 | 46 | – | – |
| Cc1ncc([C@@H](C)NC(=O)c2cc(OCC3CCOCC3)cc(-c3ncc(C4CCC4)s3)c2)cn1 [Example 124, 3-(5-Cyclobutyl-1,3-thiazol-2-yl)-N-[(1R)-1-(2-methylpyrimidin-5-yl)ethyl]-5-(tetrahydro-2H-pyran-4-ylmethoxy)benzamide] | 165 | 27 | – | – |
| CCc1cnc(-c2cc(OCC3CCOCC3)cc(C(=O)N[C@H](C)c3cnc(C)nc3)c2)s1 [Example 125, 3-(5-Ethyl-1,3-thiazol-2-yl)-N-[(1R)-1-(2-methylpyrimidin-5-yl)ethyl]-5-(tetrahydro-2H-pyran-4-ylmethoxy)benzamide] | 27 | 3 | – | – |
| Cc1ncc([C@@H](C)NC(=O)c2cc(OCC3CCOCC3)cc(-c3ncc(C(C)C)s3)c2)cn1 [Example 126, N-[(1R)-1-(2-Methylpyrimidin-5-yl)ethyl]-3-[5-(propan-2-yl)-1,3-thiazol-2-yl]-5-(tetrahydro-2H-pyran-4-ylmethoxy)benzamide] | 532 | 34 | – | – |
| CCc1cnc(-c2cc(OC3CCOCC3)cc(C(=O)N[C@H](C)c3ccc(C)nn3)c2)s1 [Example 128, 3-(5-Ethyl-1,3-thiazol-2-yl)-N-[(1R)-1-(6-methylpyridazin-3-yl)ethyl]-5-(tetrahydro-2H-pyran-4-yloxy)benzamide] | 91 | 10 | – | – |
| CCc1cnc(-c2cc(OC3CCOCC3)cc(C(=O)N[C@H](C)c3cnc(C(F)(F)F)nc3)c2)s1 [Example 129, 3-(5-Ethyl-1,3-thiazol-2-yl)-5-(tetrahydro-2H-pyran-4-yloxy)-N-{(1R)-1-[2-(trifluoromethyl)pyrimidin-5-yl]ethyl}benzamide] | 33 | 3 | – | – |
| Cc1ncc([C@@H](C)NC(=O)c2cc(O[C@H]3CCOC3)cc(-c3ncc(C)s3)c2)cn1 [Example 130, N-[(1R)-1-(2-Methylpyrimidin-5-yl)ethyl]-3-(5-methyl-1,3-thiazol-2-yl)-5-[(3S)-tetrahydrofuran-3-yloxy]benzamide] | – | – | 1350 | 74 |
| Cc1ccc(Oc2cc(C(=O)N[C@H](C)c3cnc(C)cn3)cc(-c3ncc(C)s3)c2)cn1 [Example 131, N-[(1R)-1-(5-methylpyrazin-2-yl)ethyl]-3-[(6-methylpyridin-3-yl)oxy]-5-(5-methyl-1,3-thiazol-2-yl)benzamide] | 730 | 134 | – | – |
| Cc1cnc(-c2cc(O[C@H]3CCOC3)cc(C(=O)NC(C)c3ncc(F)cc3Cl)c2)s1 (stereo partly drawn) [Example 132, N-[1-(3-Chloro-5-fluoropyridin-2-yl)ethyl]-3-(5-methyl-1,3-thiazol-2-yl)-5-[(3S)-tetrahydrofuran-3-yloxy]benzamide] | 2050 | 75 | – | – |
| Cc1ccc(CNC(=O)c2cc(O[C@H]3CCOC3)cc(-c3ncc(C)s3)c2)nn1 [Example 133, N-[(6-Methylpyridazin-3-yl)methyl]-3-(5-methyl-1,3-thiazol-2-yl)-5-[(3S)-tetrahydrofuran-3-yloxy]benzamide] | ≥ 10000 | 177 | – | – |
| Cc1cnc(-c2cc(O[C@H]3CCOC3)cc(C(=O)NC(C)c3ncc(Cl)cc3F)c2)s1 (stereo partly drawn) [Example 134, N-[1-(5-Chloro-3-fluoropyridin-2-yl)ethyl]-3-(5-methyl-1,3-thiazol-2-yl)-5-[(3S)-tetrahydrofuran-3-yloxy]benzamide] | 210 | 15 | – | – |
| Cc1ccc([C@@H](C)NC(=O)c2cc(OC[C@H]3CCOC3)cc(-c3ncc(C4CCC4)s3)c2)nn1 [Example 135, 3-(5-Cyclobutyl-1,3-thiazol-2-yl)-N-[(1R)-1-(6-methylpyridazin-3-yl)ethyl]-5-[(3S)-tetrahydrofuran-3-ylmethoxy]benzamide] | 209 | 35 | – | – |
| COCCOc1cc(C(=O)N[C@H](C)c2cnc(C)nc2)cc(-c2ncc(C)s2)c1 [Example 136, 3-(2-Methoxyethoxy)-N-[(1R)-1-(2-methylpyrimidin-5-yl)ethyl]-5-(5-methyl-1,3-thiazol-2-yl)benzamide] | 2780 | 196 | – | – |
| Cc1cnc(-c2cc(OC3CCN(C(=O)OC(C)(C)C)CC3)cc(C(=O)N[C@H](C)c3cnc(C(F)(F)F)nc3)c2)s1 [Example 137, tert-Butyl 4-[3-(5-methyl-1,3-thiazol-2-yl)-5-({(1R)-1-[2-(trifluoromethyl)pyrimidin-5-yl]ethyl}carbamoyl)phenoxy]piperidine-1-carboxylate] | 328 | – | – | 26 |
| Cc1cnc(-c2cc(OC3CCN(C)CC3)cc(C(=O)N[C@H](C)c3cnc(C(F)(F)F)nc3)c2)s1 [Example 139, 3-[(1-Methylpiperidin-4-yl)oxy]-5-(5-methyl-1,3-thiazol-2-yl)-N-{(1R)-1-[2-(trifluoromethyl)pyrimidin-5-yl]ethyl}benzamide] | 962 | 8 | – | – |
| Cc1cnc(-c2cc(OC3CCN(C(C)C)CC3)cc(C(=O)N[C@H](C)c3cnc(C(F)(F)F)nc3)c2)s1 [Example 140, 3-(5-Methyl-1,3-thiazol-2-yl)-5-{[1-(propan-2-yl)piperidin-4-yl]oxy}-N-{(1R)-1-[2-(trifluoromethyl)pyrimidin-5-yl]ethyl}benzamide] | 1300 | 33 | – | – |
| Cc1cnc(-c2cc(O[C@@H]3CCN(C)C3)cc(C(=O)N[C@H](C)c3cnc(C(F)(F)F)nc3)c2)s1 [Example 141, 3-{[(3R)-1-Methylpyrrolidin-3-yl]oxy}-5-(5-methyl-1,3-thiazol-2-yl)-N-{(1R)-1-[2-(trifluoromethyl)pyrimidin-5-yl]ethyl}benzamide] | 2200 | 43 | – | – |
| Cc1cnc(-c2cc(O[C@H]3CCN(C)C3)cc(C(=O)N[C@H](C)c3cnc(C(F)(F)F)nc3)c2)s1 [Example 142, 3-{[(3S)-1-Methylpyrrolidin-3-yl]oxy}-5-(5-methyl-1,3-thiazol-2-yl)-N-{(1R)-1-[2-(trifluoromethyl)pyrimidin-5-yl]ethyl}benzamide] | 222 | 6 | – | – |
| Cc1cnc(-c2cc(OC3CN(C)C3)cc(C(=O)N[C@H](C)c3cnc(C(F)(F)F)nc3)c2)s1 [Example 143, 3-[(1-Methylazetidin-3-yl)oxy]-5-(5-methyl-1,3-thiazol-2-yl)-N-{(1R)-1-[2-(trifluoromethyl)pyrimidin-5-yl]ethyl}benzamide] | 3050 | 84 | – | – |
| C#CCOc1cc(C(=O)N[C@@H](C)c2cnc(C(F)(F)F)nc2)cc(-c2ncc(C)s2)c1 [Example 144, 3-(5-Methyl-1,3-thiazol-2-yl)-5-(prop-2-yn-1-yloxy)-N-{(1S)-1-[2-(trifluoromethyl)pyrimidin-5-yl]ethyl}benzamide] | ≥ 10000 | 825 | – | – |
| Cc1cnc(-c2cc(OC3CCOCC3)cc(C(=O)N[C@@H](C)c3cnc(C(F)(F)F)nc3)c2)s1 [Example 145, 3-(5-Methyl-1,3-thiazol-2-yl)-5-(tetrahydro-2H-pyran-4-yloxy)-N-{(1S)-1-[2-(trifluoromethyl)pyrimidin-5-yl]ethyl}benzamide] | 4460 | 271 | – | – |
